In patent publication US8143025B2, “Antibodies against vascular endothelial growth factor receptor-1” (ImClone LLC, priority 2004, dated 2012) one finds T/C % data, which are given here for one molecule.

The experiment deals with MDA-MB-435 xenograft. As to the kind of experiment: MDA-MB-435 breast tumor xenograft. Particulars: MDA-MB-435 model, differences did not reach statistical significance. It counts as in vivo, mouse. The procedure:
Athymic nude mice (Charles River Laboratories, Wilmington, Mass.) were injected subcutaneously in the left flank area with 2×10^6 of DU4475 cells or 5×10^6 of MDA-MB-231 and MDA-MB-435 cells mixed in Matrigel (Collaborative Research Biochemicals. Bedford, Mass.). In the DU4475 and MDA-MB-231 models, tumors were allowed to reach approximately 200 mm^3 in size and then mice were randomized into groups of 12-16 animals per group. Animals received i.p. administration of the anti-VEGFR-I antibody clones 6F9, 15F11, or 18F1 at a dose of 0.5 mg (MDA-MB-231) or 1 mg (DU4475) three times each week. In the MDA-MB-435 model, the tumor cells were implanted subcutaneously into mammary fat pad area in the mouse. After tumors grew to reach approximately 200 mm^3 in size, mice were randomized into groups of 15 animals per group and intraperitoneally administered with 0.5 mg per dose of 18F1 antibody three times each week. Mice in control groups received an equal volume of saline solution. Treatment of animals was continued for the duration of the experiment. Tumors were measured twice each week with calipers. Tumor volumes were calculated using the formula [π/6 (w1×w2×w2)], where “w1” represents the largest tumor diameter and “w2” represents the smallest tumor diameter. […] Tumor growth was evaluated approximately twice weekly, with tumor volume calculated as π/6* (Length*Width^2), where Length=longest diameter and Width=diameter perpendicular to Length. Tumor dimensions were measured with calipers. T/C % was calculated as 100*(Final Treatment Tumor Volume/Initial Treatment Tumor Volume)/(Final Control Tumor Volume/Initial Control Tumor Volume). […] The effect of treatment on tumor growth was analyzed using repeated measures analysis of variance (RM ANOVA), p<0.05 was considered significant. […] AU treatments were administered i.p. The effect of treatments on tumor growth were analyzed using repeated measures analysis of variance (RM ANOVA), p<0.05 was considered significant.

`O=P1(N(CCCl)CCCl)NCCCO1` (stereo not shown) [cyclophosphamide, reference compound]: the T/C % worked out at 65%.
